Among the data in patent US20260070945A1, “MACROCYCLIC IMMUNOMODULATORS” (Bristol-Myers Squibb Company, priority 2022, published 2026) are IC50 values, retold here.

Structures are written as SMILES. Where a SMILES comes first, the peptide text is derived from it. Bridges are numbered along the chain shown (N, C = ends). [ ]: non-standard residue; d: D form. The star is where a group is joined. Phe(4-COOH) = N[C@@H](Cc1ccc(C(=O)O)cc1)C(=O)O; Bip = N[C@@H](Cc1ccc(-c2ccccc2)cc1)C(=O)O; Phe(3-F) = N[C@@H](Cc1cccc(F)c1)C(=O)O; Phe(3-Me) = Cc1cccc(C[C@H](N)C(=O)O)c1; Val(3-OH) = CC(C)(O)[C@H](N)C(=O)O; Hexyloxycarbonyl = CCCCCCOC(=O)*; 4Pal = N[C@@H](Cc1ccncc1)C(=O)O; Cha = N[C@@H](CC1CCCCC1)C(=O)O; Carboxymethyl = O=C(O)C*; NMeA = CN[C@@H](C)C(=O)O; Orn = NCCC[C@H](N)C(=O)O; Aun = NCCCCCCCCCCC(=O)O; Dab = NCC[C@H](N)C(=O)O; Abu = CC[C@H](N)C(=O)O; Dap = NC[C@H](N)C(=O)O; AEEA = NCCOCCOCC(=O)O

In this test the target is T1, PD-1/PD-L1 interaction (PE-labeled human PD-L1-Ig binding to Jurkat cell line over-expressing human PD-1) (Homo sapiens, UniProt Q15116).
T1 construct: expressed in transfected cells; host or cells: Jurkat
T1 sequence (Q15116 25-288): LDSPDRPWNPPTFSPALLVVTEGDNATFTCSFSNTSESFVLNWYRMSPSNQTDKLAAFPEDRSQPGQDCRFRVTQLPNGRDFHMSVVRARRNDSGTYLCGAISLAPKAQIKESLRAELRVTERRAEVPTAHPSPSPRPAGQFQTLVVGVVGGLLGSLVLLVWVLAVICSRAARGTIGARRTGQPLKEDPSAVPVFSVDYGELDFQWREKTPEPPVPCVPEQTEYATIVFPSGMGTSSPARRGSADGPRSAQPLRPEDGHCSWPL
The test is described as follows: Jurkat-PD-1 Cell Binding High-Content Screening Assay (CBA). The conditions noted are these: Jurkat-hPD-1 cells, PE-labeled PD-L1-Ig 20 nM final; read-out: Jurkat HPD1 PDL1 IC50. The gist of the method:
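Binding of 20 nM (final) PE-tagged PD-L1-Ig to compound-pretreated Jurkat-hPD-1 cells was measured by high-content imaging after 1 h. Pretreatment ran 2 h at 37 °C in DMEM with 10% fetal calf serum.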
With `CC[C@@H]1NC(=O)[C@H](Cc2cccc(C)c2)NC(=O)[C@H](CC(=O)O)NC(=O)[C@H](Cc2ccc(OCC(=O)O)cc2)NC(=O)[C@H](CCN)NC(=O)CSC[C@@H](C(=O)N[C@@H](CCN)C(=O)NCCCCCCCCCCC(=O)O)NC(=O)[C@H](CO)NC(=O)[C@H](C(C)(C)O)NC(=O)[C@H](CC2CCCCC2)NC(=O)[C@H](CCN)NC(=O)[C@@H](CC(C)C)NC(=O)[C@H](C)N(C)C(=O)[C@H](Cc2ccc(OCC(=O)O)cc2)NC(=O)[C@H](Cc2ccc(-c3ccccc3)cc2)NC1=O` [Example 1308] ({CH2CO}-[Dab]Y(Carboxymethyl)D[Phe(3-Me)][Abu][Bip]Y(Carboxymethyl)[NMeA][dL][Dab][Cha][Val(3-OH)]SC[Dab][Aun]-OH; thioether N-14), the IC50 (usually the midpoint of a concentration-inhibition curve) was found to be 0.007 µM.
The figure for `Cc1cccc(C[C@@H]2NC(=O)[C@H](CC(=O)O)NC(=O)[C@H](Cc3ccc(C(=O)O)cc3)NC(=O)[C@H](Cc3ccncc3)NC(=O)CSC[C@@H](C(=O)N[C@@H](CCN)C(=O)NCCCCCCCCCCC(=O)O)NC(=O)[C@H](CO)NC(=O)[C@H](C(C)(C)O)NC(=O)[C@H](CC3CCCCC3)NC(=O)[C@H](CCN)NC(=O)[C@@H](CC(C)C)NC(=O)[C@H](C)N(C)C(=O)[C@H](Cc3ccc(OCC(=O)O)cc3)NC(=O)[C@H](Cc3ccc(-c4ccccc4)cc3)NC(=O)[C@H](Cc3cccc(F)c3)NC2=O)c1` [Example 1309] ({CH2CO}-[4Pal][Phe(4-COOH)]D[Phe(3-Me)][Phe(3-F)][Bip]Y(Carboxymethyl)[NMeA][dL][Dab][Cha][Val(3-OH)]SC[Dab][Aun]-OH; thioether N-14) is 0.0127 µM; for `Cc1cccc(C[C@@H]2NC(=O)[C@H](CC(=O)O)NC(=O)[C@H](Cc3ccc(OCC(=O)O)cc3)NC(=O)[C@H](CCN)NC(=O)CSC[C@@H](C(=O)N[C@@H](CCN)C(=O)NCCCCCCCCCCC(=O)O)NC(=O)[C@H](CO)NC(=O)[C@H](C(C)(C)O)NC(=O)[C@H](CC3CCCCC3)NC(=O)[C@H](CCN)NC(=O)[C@@H](CC(C)C)NC(=O)[C@H](C)N(C)C(=O)[C@H](Cc3ccc(OCC(=O)O)cc3)NC(=O)[C@H](Cc3ccc(-c4ccccc4)cc3)NC(=O)[C@H](Cc3cccc(F)c3)NC2=O)c1` [Example 1310] ({CH2CO}-[Dab]Y(Carboxymethyl)D[Phe(3-Me)][Phe(3-F)][Bip]Y(Carboxymethyl)[NMeA][dL][Dab][Cha][Val(3-OH)]SC[Dab][Aun]-OH; thioether N-14) it is 0.0306 µM.
Then `CCCCCCOC(=O)NCC[C@@H]1NC(=O)[C@@H](CC(C)C)NC(=O)[C@H](C)N(C)C(=O)[C@H](Cc2ccc(OCC(=O)O)cc2)NC(=O)[C@H](Cc2ccc(-c3ccccc3)cc2)NC(=O)[C@H](Cc2ccc(OCC(=O)O)cc2)NC(=O)[C@H](Cc2cccc(C)c2)NC(=O)[C@H](CC(=O)O)NC(=O)[C@H](Cc2ccc(OCC(=O)O)cc2)NC(=O)[C@H]([C@@H](C)O)NC(=O)CSC[C@@H](C(=O)N[C@@H](CCN)C(=O)NCCOCCOCC(=O)NCCCCCCCCCCC(=O)O)NC(=O)[C@H](CCC(=O)O)NC(=O)[C@H](C(C)C)NC(=O)[C@H](CC2CCCCC2)NC1=O` [Example 1311] ({CH2CO}-TY(Carboxymethyl)D[Phe(3-Me)]Y(Carboxymethyl)[Bip]Y(Carboxymethyl)[NMeA][dL][Dab](Hexyloxycarbonyl)[Cha]VEC[Dab][AEEA][Aun]-OH; thioether N-14), with 0.244 µM.
On to `Cc1cccc(C[C@@H]2NC(=O)[C@H](CC(=O)O)NC(=O)[C@H](Cc3ccc(OCC(=O)O)cc3)NC(=O)[C@H](CN)NC(=O)CSC[C@@H](C(=O)N[C@@H](CCN)C(=O)NCCOCCOCC(=O)NCCCCCCCCCCC(=O)O)NC(=O)[C@H](CCCN)NC(=O)[C@H](C(C)C)NC(=O)[C@H](CC3CCCCC3)NC(=O)[C@H](CCN)NC(=O)[C@@H](CC(C)C)NC(=O)[C@H](C)N(C)C(=O)[C@H](Cc3ccc(O)cc3)NC(=O)[C@H](Cc3ccc(-c4ccccc4)cc3)NC(=O)[C@H](Cc3ccc(O)cc3)NC2=O)c1` [Example 1312] ({CH2CO}-[Dap]Y(Carboxymethyl)D[Phe(3-Me)]Y[Bip]Y[NMeA][dL][Dab][Cha]V[Orn]C[Dab][AEEA][Aun]-OH; thioether N-14), for which the IC50 worked out at 0.0274 µM.
Take `Cc1cccc(C[C@@H]2NC(=O)[C@H](CC(=O)O)NC(=O)[C@H](Cc3ccc(OCC(=O)O)cc3)NC(=O)[C@H](CN)NC(=O)CSC[C@@H](C(=O)N[C@@H](CCN)C(=O)NCCCCCCCCCCC(=O)O)NC(=O)[C@H](CCCN)NC(=O)[C@H](C(C)C)NC(=O)[C@H](CC3CCCCC3)NC(=O)[C@H](CCN)NC(=O)[C@@H](CC(C)C)NC(=O)[C@H](C)N(C)C(=O)[C@H](Cc3ccc(O)cc3)NC(=O)[C@H](Cc3ccc(-c4ccccc4)cc3)NC(=O)[C@H](Cc3ccc(O)cc3)NC2=O)c1` [Example 1313] ({CH2CO}-[Dap]Y(Carboxymethyl)D[Phe(3-Me)]Y[Bip]Y[NMeA][dL][Dab][Cha]V[Orn]C[Dab][Aun]-OH; thioether N-14): the IC50 worked out at 0.0282 µM.
As for `Cc1cccc(C[C@@H]2NC(=O)[C@H](CC(=O)O)NC(=O)[C@H](Cc3ccc(OCC(=O)O)cc3)NC(=O)[C@H](CN)NC(=O)CSC[C@@H](C(=O)N[C@@H](CCN)C(=O)NCCOCCOCC(=O)NCCCCCCCCCCC(=O)O)NC(=O)[C@H](CCCN)NC(=O)[C@H](C(C)C)NC(=O)[C@H](CC3CCCCC3)NC(=O)[C@H](CCN)NC(=O)[C@@H](CC(C)C)NC(=O)[C@H](C)N(C)C(=O)[C@H](Cc3ccc(O)cc3)NC(=O)[C@H](Cc3ccc(-c4ccccc4)cc3)NC(=O)[C@H](C(C)C)NC2=O)c1` [Example 1314] ({CH2CO}-[Dap]Y(Carboxymethyl)D[Phe(3-Me)]V[Bip]Y[NMeA][dL][Dab][Cha]V[Orn]C[Dab][AEEA][Aun]-OH; thioether N-14), the IC50 worked out at 0.007 µM.
The figure for `Cc1cccc(C[C@@H]2NC(=O)[C@H](CC(=O)O)NC(=O)[C@H](Cc3ccc(OCC(=O)O)cc3)NC(=O)[C@H](CN)NC(=O)CSC[C@@H](C(=O)N[C@@H](CCN)C(=O)NCCCCCCCCCCC(=O)O)NC(=O)[C@H](CCCN)NC(=O)[C@H](C(C)C)NC(=O)[C@H](CC3CCCCC3)NC(=O)[C@H](CCN)NC(=O)[C@@H](CC(C)C)NC(=O)[C@H](C)N(C)C(=O)[C@H](Cc3ccc(O)cc3)NC(=O)[C@H](Cc3ccc(-c4ccccc4)cc3)NC(=O)[C@H](C(C)C)NC2=O)c1` [Example 1315] ({CH2CO}-[Dap]Y(Carboxymethyl)D[Phe(3-Me)]V[Bip]Y[NMeA][dL][Dab][Cha]V[Orn]C[Dab][Aun]-OH; thioether N-14) is 0.0099 µM; for `Cc1cccc(C[C@@H]2NC(=O)[C@H](CC(=O)O)NC(=O)[C@H](Cc3ccc(OCC(=O)O)cc3)NC(=O)[C@H](CN)NC(=O)CSC[C@@H](C(=O)NCCOCCOCC(=O)NCCCCCCCCCCC(=O)O)NC(=O)[C@H](CCCN)NC(=O)[C@H](C(C)C)NC(=O)[C@H](CC3CCCCC3)NC(=O)[C@H](CCN)NC(=O)[C@@H](CC(C)C)NC(=O)[C@H](C)N(C)C(=O)[C@H](Cc3ccc(O)cc3)NC(=O)[C@H](Cc3ccc(-c4ccccc4)cc3)NC(=O)[C@H](Cc3ccc(O)cc3)NC2=O)c1` [Example 1316] ({CH2CO}-[Dap]Y(Carboxymethyl)D[Phe(3-Me)]Y[Bip]Y[NMeA][dL][Dab][Cha]V[Orn]C[AEEA][Aun]-OH; thioether N-14) it is 0.0977 µM; for `Cc1cccc(C[C@@H]2NC(=O)[C@H](CC(=O)O)NC(=O)[C@H](Cc3ccc(OCC(=O)O)cc3)NC(=O)[C@H](CN)NC(=O)CSC[C@@H](C(=O)NCCOCCOCC(=O)NCCCCCCCCCCC(=O)O)NC(=O)[C@H](CCCN)NC(=O)[C@H](C(C)C)NC(=O)[C@H](CC3CCCCC3)NC(=O)[C@H](CCN)NC(=O)[C@@H](CC(C)C)NC(=O)[C@H](C)N(C)C(=O)[C@H](Cc3ccc(O)cc3)NC(=O)[C@H](Cc3ccc(-c4ccccc4)cc3)NC(=O)[C@H](C(C)C)NC2=O)c1` [Example 1317] ({CH2CO}-[Dap]Y(Carboxymethyl)D[Phe(3-Me)]V[Bip]Y[NMeA][dL][Dab][Cha]V[Orn]C[AEEA][Aun]-OH; thioether N-14) it is 0.0365 µM.
Then `Cc1cccc(C[C@@H]2NC(=O)[C@H](CC(=O)O)NC(=O)[C@H](Cc3ccc(OCC(=O)O)cc3)NC(=O)[C@H](CN)NC(=O)CSC[C@@H](C(=O)NCCCCCCCCCCC(=O)O)NC(=O)[C@H](CCCN)NC(=O)[C@H](C(C)C)NC(=O)[C@H](CC3CCCCC3)NC(=O)[C@H](CCN)NC(=O)[C@@H](CC(C)C)NC(=O)[C@H](C)N(C)C(=O)[C@H](Cc3ccc(O)cc3)NC(=O)[C@H](Cc3ccc(-c4ccccc4)cc3)NC(=O)[C@H](Cc3ccc(O)cc3)NC2=O)c1` [Example 1318] ({CH2CO}-[Dap]Y(Carboxymethyl)D[Phe(3-Me)]Y[Bip]Y[NMeA][dL][Dab][Cha]V[Orn]C[Aun]-OH; thioether N-14), with 0.0598 µM; and `Cc1cccc(C[C@@H]2NC(=O)[C@H](CC(=O)O)NC(=O)[C@H](Cc3ccc(OCC(=O)O)cc3)NC(=O)[C@H](CN)NC(=O)CSC[C@@H](C(=O)NCCCCCCCCCCC(=O)O)NC(=O)[C@H](CCCN)NC(=O)[C@H](C(C)C)NC(=O)[C@H](CC3CCCCC3)NC(=O)[C@H](CCN)NC(=O)[C@@H](CC(C)C)NC(=O)[C@H](C)N(C)C(=O)[C@H](Cc3ccc(O)cc3)NC(=O)[C@H](Cc3ccc(-c4ccccc4)cc3)NC(=O)[C@H](C(C)C)NC2=O)c1` [Example 1319] ({CH2CO}-[Dap]Y(Carboxymethyl)D[Phe(3-Me)]V[Bip]Y[NMeA][dL][Dab][Cha]V[Orn]C[Aun]-OH; thioether N-14), with 0.042 µM; and `Cc1cccc(C[C@@H]2NC(=O)[C@H](CC(=O)O)NC(=O)[C@H](Cc3ccc(OCC(=O)O)cc3)NC(=O)[C@H](CN)NC(=O)CSC[C@@H](C(=O)N[C@@H](CCN)C(=O)NCCCCCCCCCCC(=O)O)NC(=O)[C@H]([C@@H](C)O)NC(=O)[C@H](C(C)C)NC(=O)[C@H](CC3CCCCC3)NC(=O)[C@H](CCN)NC(=O)[C@@H](CC(C)C)NC(=O)[C@H](C)N(C)C(=O)[C@H](Cc3ccc(O)cc3)NC(=O)[C@H](Cc3ccc(-c4ccccc4)cc3)NC(=O)[C@H](C(C)C)NC2=O)c1` [Example 1320] ({CH2CO}-[Dap]Y(Carboxymethyl)D[Phe(3-Me)]V[Bip]Y[NMeA][dL][Dab][Cha]VTC[Dab][Aun]-OH; thioether N-14), with 0.015 µM.
